From US9895381B2, “Vitamin D receptor agonists to treat diseases involving CXCL12 activity” (Salk Institute for Biological Studies, priority 2013, dated 2018)

Tests used:
wild-type C57BL6/J mice = test: Cerulein-induced chronic pancreatitis model; type: in vivo, mouse; settings: for inflammation and fibrosis: cerulein plus 40 μg/kg calcipotriol i.p. vs cerulein alone
Protocol: Tissues were embedded in O.C.T. and frozen sections were fixed in ice-cold methanol at −20° C. for 20 min. Sections were blocked in PBS+0.2% BSA+0.05% Triton X-100 (blocking solution) for 1 h at room temperature. Primary antibody dilutions in blocking solution were as follows: anti-phospho-STAT3(Tyr705), 1:100 (Cell Signaling Technology); anti-Collagen I, 1:500 (Abcam), anti-GFAP, 1:100 (Abcam); anti-CD45, 1:100 (BD Pharmingen). Primary antibody incubations were performed in a humidified chamber at 4° C. overnight. Sections were washed 3 times with PBS+0.05% Triton X-100, then incubated in secondary antibodies for 1 h at room temperature, protected from light. Secondary antibodies used included Alexa Fluor 594 goat anti-rabbit IgG, Alexa Fluor 488 goat anti-rabbit IgG, Alexa Fluor 594 goat anti-rat IgG, and Alexa Fluor 488 goat anti-mouse IgG (Molecular Probes) and were used at 1:250 in blocking solution. Sections were washed 3 times with PBS and mounted using Vectastain mounting medium with or without DAPI. Fluorescence was visualized on a Leica DM5000B fluorescent microscope and quantified using ImageJ. Chronic pancreatitis was induced in wild-type C57BL6/J mice beginning at 8 weeks of age. Ten animals per cohort received intraperitoneal injections of saline, 50 μg/kg cerulein, or cerulein plus 40 μg/kg calcipotriol. Cerulein injections were administered as 6 hourly injections 2 times per week for 12 weeks and analyzed 1 week after final cerulein injection, adapted from previous studies (Sah et al., 2013; Treiber et al., 2011; Yoo et al., 2005). Calcipotriol injections were administered 3 times per week for the duration of the chronic pancreatitis study. For acute pancreatitis studies, 8-week-old wild-type or Vdr−/− mice received 6 hourly intraperitoneal injections of 50 μg/kg cerulein on days 1, 3, and 5, with or without single daily injections of 40 μg/kg calcipotriol. Mice were sacrificed on day 6. At necropsy, pancreata were harvested and digested for PSC isolation as described above, or prepared for histological analysis as described herein. Histological sections were cut from formalin-fixed tissues at 7 μm thickness Sirius Red/Fast Green staining (Chondrex) was performed per manufacturer's instructions. Images were obtained and quantification of Sirius Red-positive area performed using Nuance 3.0.1.2 software. Six independent fields were captured per sample.

primary mouse PSCs = test: RNA-Seq transcriptome of PSCs with or without VDR ligand; type: cell-based
Protocol: Pancreatic stellate cells (PSCs) were isolated from pancreata of wild-type C57BL6/J mice at 8 weeks of age by a modification of the method described by Apte et al. (Apte et al., 1998). Briefly, pancreatic tissue was minced with scissors and digested with 0.02% Pronase (Roche, Indianapolis, Ind.), 0.05% Collagenase P (Roche), and 0.1% DNase (Roche) in Gey's balanced salt solution (GBSS; Sigma Aldrich, St. Louis, Mo.) at 37° C. for […] Digested tissue was then filtered through a 100 μm nylon mesh. Cells were washed once with GBSS, pelleted, and resuspended in 9.5 ml GBSS containing 0.3% bovine serum albumin (BSA) and 8 ml 28.7% Nycodenz solution (Sigma Aldrich; approximate density of the solution is 1.070). The cell suspension was layered beneath GBSS containing 0.3% BSA, and centrifuged at 1400×g for 20 min at 4° C. The cells of interest were harvested from the interface of the Nycodenz solution at the bottom and the aqueous solution at the top. Isolated PSCs were washed with GBSS and resuspended in DMEM (Invitrogen) containing 10% characterized FBS (HyClone) and antibiotics (penicillin 100 U/ml and streptomycin 100 μg/ml, Invitrogen). Cells were maintained at 37° C. in a humidified atmosphere of 7% CO2. After reaching 80% confluence, cells were briefly trypsinized (0.25% Trypsin-EDTA, Invitrogen) and subcultured. Total RNA from human and mouse PSCs was isolated using Trizol (Invitrogen) and the RNeasy mini kit with on-column DNase digestion (Qiagen) according to the manufacturers' instructions. Biological quadruplicates were used for human samples, and biological triplicates used for mouse samples. For transcriptome studies with VDR activation, PSCs were treated with vehicle (DMSO) or 100 nM calcipotriol (Tocris) and harvested at the indicated time points. Sequencing libraries were prepared from 100-500 ng total RNA using the TruSeq RNA Sample Preparation Kit v2 (Illumina) according to the manufacturer's protocol. The Gene Expression Omnibus accession number for the RNA-Seq data is GSE43770. Briefly, mRNA was purified, fragmented, and used for first-, then second-strand cDNA synthesis followed by adenylation of 3′ ends. Samples were ligated to unique adapters and subject to PCR amplification. Libraries were then validated using the 2100 BioAnalyzer (Agilent), normalized, and pooled for sequencing. Human normal and cancer-associated PSCs were sequenced on the Illumina GAII platform with a 41 bp read length, while mouse PSCs and human MiaPaCa-2 cells were sequenced on the Illumina HiSeq 2000 using bar-coded multiplexing and a 51 bp read length. Read alignment and junction mapping was accomplished using TopHat2 v2.0.4 using a 25 bp 5′ segment seed for initial mapping followed by differential gene expression analysis using Cuffdiff v2.0.2 to map reads to the reference genome annotation, NCBI mouse build 37.2 and human build 37.2 (Trapnell et al., 2012). Median sequencing read yield per replicate sample was 49.2M for MiaPaCa-2 cells, 25.4M for mouse PSCs and 53.8M for human PSCs. Data were expressed as fragments per kilobase of exon per million fragments mapped (FPKM). Volcano plots were generated from Cuffdiff output using CummeRbund v2.0.0 (Trapnell et al., 2012).

wild type mice = test: Cerulein-induced acute pancreatitis model; type: in vivo, mouse; settings: cerulein with daily 40 μg/kg calcipotriol
Protocol: Tissues were embedded in O.C.T. and frozen sections were fixed in ice-cold methanol at −20° C. for 20 min. Sections were blocked in PBS+0.2% BSA+0.05% Triton X-100 (blocking solution) for 1 h at room temperature. Primary antibody dilutions in blocking solution were as follows: anti-phospho-STAT3(Tyr705), 1:100 (Cell Signaling Technology); anti-Collagen I, 1:500 (Abcam), anti-GFAP, 1:100 (Abcam); anti-CD45, 1:100 (BD Pharmingen). Primary antibody incubations were performed in a humidified chamber at 4° C. overnight. Sections were washed 3 times with PBS+0.05% Triton X-100, then incubated in secondary antibodies for 1 h at room temperature, protected from light. Secondary antibodies used included Alexa Fluor 594 goat anti-rabbit IgG, Alexa Fluor 488 goat anti-rabbit IgG, Alexa Fluor 594 goat anti-rat IgG, and Alexa Fluor 488 goat anti-mouse IgG (Molecular Probes) and were used at 1:250 in blocking solution. […] Fluorescence was visualized on a Leica DM5000B fluorescent microscope and quantified using ImageJ. […] Cerulein injections were administered as 6 hourly injections 2 times per week for 12 weeks and analyzed 1 week after final cerulein injection, adapted from previous studies (Sah et al., 2013; Treiber et al., 2011; Yoo et al., 2005). […] Images were obtained and quantification of Sirius Red-positive area performed using Nuance 3.0.1.2 software. […]

C=C1/C(=C\C=C2/CCC[C@]3(C)[C@@H]([C@H](C)/C=C/[C@@H](O)C4CC4)CC[C@@H]23)C[C@@H](O)C[C@@H]1O [Cal, 1α,24-(OH)2-24-cyclopropyl-D3]
inflammation and fibrosis (wild-type C57BL6/J mice): attenuated inflammation and fibrosis
inflammation and fibrosis (wild-type C57BL6/J mice; listed as calcipotriol): markedly reduced inflammation and fibrosis
Acta2 expression in isolated PSCs (wild-type C57BL6/J mice; cerulein+Cal 12 weeks): trended downwards
phospho-Stat3 induction (wild-type C57BL6/J mice; cerulein+Cal 12 weeks): reduced induction of phospho-Stat3
expression of activation and cancer signature genes in isolated PSCs (wild-type C57BL6/J mice; cerulein+Cal 12 weeks vs controls): decreased
effect on activation and cancer signatures in PSCs (primary mouse PSCs): inhibition of the activation and cancer signatures
genes with significantly decreased expression (primary mouse PSCs; activated PSCs): 1616 genes
genes with significantly increased expression (primary mouse PSCs; activated PSCs): 664 genes
genes with significantly decreased expression (primary mouse PSCs; pre-activated PSCs): 431 genes
genes with significantly increased expression (primary mouse PSCs; pre-activated PSCs): 307 genes
activation-associated changes in PSC gene expression (wild type mice): impaired activation-associated changes in PSC gene expression
leukocyte infiltration and fibrosis (wild type mice): reduced leukocyte infiltration and fibrosis
